Reference: patent US20230074252A1, “DOSAGES AND METHODS FOR TREATING PULMONARY ARTERIAL HYPERTENSION WITH RODATRISTAT” (Altavant Sciences GmbH, priority 2020, published 2023)
Where two headings read alike, the source gives them in different places.

Key:
CYP2D6 = CYP2D6 (Homo sapiens, UniProt P10635); test: In vitro CYP substrate assessment (victim potential); type: in vitro ADME
CYP2C9 = CYP2C9 (Homo sapiens, UniProt P11712); test: as above; type: in vitro ADME
CYP2B6 = test: CYP mRNA induction, cultured human hepatocytes from 3 donors; type: in vitro ADME; details: for Highest induction of CYP2B6 by an individual donor: 10 μM; for Induction of CYP2B6 mRNA, mean±SD relative to control: 20 μM; for Inducer classification, CYP2B6: clinically relevant concentrations; for In vitro induction parameter Emax, CYP2B6 / EC50: mRNA, human hepatocytes; for EC50: read-out: In vitro induction parameter EC50, CYP2B6; for Calculated R3 Value, CYP2B6: predicted @ 600 mg BID
Description: (§1) “mM^”=millimolar. CYP induction was evaluated using cultured human hepatocytes (from 3 donors) treated once daily for 3 days with RE/R concentrations to […].
(§2) CYP induction was evaluated in vitro using cultured human hepatocytes from 3 donors. Rodatristat ethyl and rodatristat caused negligible induction of CYP1A2 (<2% control for the most sensitive responder), CYP2B6 (mean±SD values relative to control of 16.2±20.0% and 15.0±17.9%, respectively), and CYP3A4 (7.1±6.41% and 10.3±11.9%, respectively) mRNA at 20 μM (the highest concentration studied). […] The highest values for induction of CYP2B6 by an individual donor at all concentrations tested were 60.1% and 57.4% at 10 μM for rodatristat ethyl and rodatristat, respectively, and for CYP3A4 were 13.3% and 23.0% at 20 μM, respectively.
(§3) The induction of specific CYP isoforms (CYP1A2, CYP2B6, CYP3A4) was investigated for RVT-1201 and KAR5417 in human hepatocytes (HH) (XT153040). […] CYP2B6 and CYP3A4 mRNA induction by RVT-1201 and KAR5417 (Emax and EC50) were used to estimate the PBPK model parameters Indmax and IndC50. Within the PBPK model, IndC50 is equal to EC50, the concentration of inducer that supports half maximal induction of the CYP isoform (estimated by a sigmoid three parameter fit to in vitro concentration-dependent mRNA induction data). Within the PBPK model, Indmax represents the maximum fold induction relative to incubation with vehicle only (vehicle=1). The reported Emax for RVT-1201 and KAR5417 was estimated by sigmoid three parameter fit to in vitro concentration-dependent mRNA induction data. Baseline activity was set equal to zero, rather than one, therefore reported Emax was increased by adding one to each value to estimate Indmax. CYP2B6 induction data was used in the PBPK model as reported. CYP3A4 induction data was scaled based on the maximum induction by rifampin (at 20 μM). Scaling of CYP3A4 induction using rifampin data from the same system leverages the extensive literature on rifampin induction in vitro and in vivo and allows adjustment of in vitro induction data based on the relative performance of rifampin in each in vitro incubation, and the empirical relationship between rifampin induction of CYP3A4 in vitro and in vivo.

CYP3A4 [1] = test: as above; type: in vitro ADME; details: for Highest induction of CYP3A4 by an individual donor / Induction of CYP3A4 mRNA, mean±SD relative to control: 20 μM; for Inducer classification, CYP3A4: clinically relevant concentrations; for In vitro induction parameter Emax, CYP3A4 / EC50: mRNA, human hepatocytes; for EC50: read-out: In vitro induction parameter EC50, CYP3A4; for Calculated R3 Value, CYP3A4: predicted @ 600 mg BID
Description: as §1, §2, §3

CYP1A2 = test: as above; type: in vitro ADME; details: clinically relevant concentrations
Description: as §1, §2, §3

P-gp = biological target: T1, P-gp (Homo sapiens, UniProt P08183); test: Transporter inhibition, Caco-2 cells, digoxin probe; type: in vitro ADME; details: for Potential for interaction? (transporter inhibitor), P-gp: predicted @ 600 mg BID
T1 construct: endogenous in cells; host or cells: Caco-2
T1 sequence (P08183 whole entry): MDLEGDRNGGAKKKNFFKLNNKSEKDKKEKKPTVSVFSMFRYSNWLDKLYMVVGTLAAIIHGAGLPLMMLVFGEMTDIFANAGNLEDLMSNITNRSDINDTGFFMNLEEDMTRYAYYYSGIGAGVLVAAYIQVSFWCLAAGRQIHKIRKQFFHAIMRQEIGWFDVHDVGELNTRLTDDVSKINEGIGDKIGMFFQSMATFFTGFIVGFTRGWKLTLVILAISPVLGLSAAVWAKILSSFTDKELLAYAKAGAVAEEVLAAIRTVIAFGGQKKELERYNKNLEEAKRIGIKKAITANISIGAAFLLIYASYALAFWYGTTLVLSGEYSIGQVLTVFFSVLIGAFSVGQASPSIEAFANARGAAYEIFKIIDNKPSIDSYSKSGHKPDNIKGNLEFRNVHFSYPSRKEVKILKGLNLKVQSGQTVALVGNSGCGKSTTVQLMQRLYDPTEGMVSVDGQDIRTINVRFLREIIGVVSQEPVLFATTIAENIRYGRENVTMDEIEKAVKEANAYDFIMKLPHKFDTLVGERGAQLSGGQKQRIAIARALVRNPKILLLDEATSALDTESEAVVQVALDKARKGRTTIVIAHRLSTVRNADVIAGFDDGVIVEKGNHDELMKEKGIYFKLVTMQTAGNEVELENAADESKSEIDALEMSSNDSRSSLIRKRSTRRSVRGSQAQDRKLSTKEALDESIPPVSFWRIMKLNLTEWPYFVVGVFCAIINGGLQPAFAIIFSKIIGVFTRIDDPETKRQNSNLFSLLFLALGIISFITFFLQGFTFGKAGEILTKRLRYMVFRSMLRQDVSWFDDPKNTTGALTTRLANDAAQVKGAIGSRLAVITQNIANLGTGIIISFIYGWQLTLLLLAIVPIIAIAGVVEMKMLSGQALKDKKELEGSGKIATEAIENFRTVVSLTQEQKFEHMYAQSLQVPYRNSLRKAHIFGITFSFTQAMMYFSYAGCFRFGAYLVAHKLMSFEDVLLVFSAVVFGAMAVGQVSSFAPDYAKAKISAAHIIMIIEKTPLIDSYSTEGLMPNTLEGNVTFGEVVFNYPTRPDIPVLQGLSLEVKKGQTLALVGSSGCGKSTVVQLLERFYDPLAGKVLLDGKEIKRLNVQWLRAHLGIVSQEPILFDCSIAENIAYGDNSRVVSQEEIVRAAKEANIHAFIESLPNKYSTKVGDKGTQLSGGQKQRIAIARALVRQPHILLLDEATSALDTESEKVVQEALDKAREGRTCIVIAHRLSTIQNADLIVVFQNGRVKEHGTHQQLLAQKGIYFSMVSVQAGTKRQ
Description: The competitive inhibition of specific transporters was investigated for RVT-1201 and KAR5417 in transporter-expressing in vitro systems (XT158039). Inhibition of P-gp was evaluated using a Caco-2 cell line with digoxin as probe substrate. Inhibition of OATP1B1 and OATP1B3 was evaluated using a HEK293 cell line expressing these transporters with estradiol-17β-glucuronide as probe substrate. In addition, inhibition of other transporters was also investigated (BCRP, OAT1, OAT3, OCT2, MATE1, MATE2-K). The IC50 estimates for P-gp (RVT-1201) and OATP1B1/3 (RVT-1201 and KAR5417) supported further evaluation of inhibition DDI potential using the PBPK model. For each IC50 estimate, substrate concentration and Km were used to estimate RVT-1201 and KAR5417 Ki with Equation 1 (Cheng and Prusoff, 1973).

CYP3A4 [2] = biological target: CYP3A4 (Homo sapiens, UniProt P08684); test: In vitro CYP substrate assessment (victim potential); type: in vitro ADME
Sequence of CYP3A4 (Homo sapiens, UniProt P08684) (P08684 whole entry): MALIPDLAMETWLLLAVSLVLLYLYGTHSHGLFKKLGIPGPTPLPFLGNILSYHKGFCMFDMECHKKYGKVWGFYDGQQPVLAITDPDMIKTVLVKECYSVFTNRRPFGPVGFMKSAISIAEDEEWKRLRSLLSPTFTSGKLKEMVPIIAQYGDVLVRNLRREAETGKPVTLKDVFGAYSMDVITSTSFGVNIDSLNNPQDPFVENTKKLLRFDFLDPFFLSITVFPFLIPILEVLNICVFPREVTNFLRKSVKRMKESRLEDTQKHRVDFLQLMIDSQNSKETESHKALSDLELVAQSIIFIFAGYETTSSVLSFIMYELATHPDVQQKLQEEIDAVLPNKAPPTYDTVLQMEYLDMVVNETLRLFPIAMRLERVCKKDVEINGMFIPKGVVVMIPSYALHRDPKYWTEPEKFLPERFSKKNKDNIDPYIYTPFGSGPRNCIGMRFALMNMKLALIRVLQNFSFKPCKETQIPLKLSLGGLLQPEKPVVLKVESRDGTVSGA

[3] = Clinical pharmacokinetics in healthy subjects (Studies RVT-1201-1001 and KAR5585-101); type: in vivo, human
Description: Clinical Study RVT-1201-1001 was a single and repeat dose study of RVT-1201 in healthy subjects to evaluate the pharmacokinetic profile of RVT-1201 and its active metabolite KAR5417. In Part 1 of this study, a single oral dose of 400 mg RVT-120 was administered as an oral powder in Regimen A and B, and as immediate release tablets in Regimen C, to 9 healthy male subjects. In addition, a single 1200 mg dose as immediate release tablets was administered in Regimen D.
Following oral administration in the fed state, RVT-1201 was well absorbed and peak plasma levels were achieved after a median time of 2.5 h. […] The planned clinical dose schedule of RVT-1201 in ELEVATE2 is up to 600 mg BID. […] The geometric mean apparent clearance was 900 L/h after oral administration in Regimen C of Clinical Study RVT-1201-1001. Elimination of RVT-1201 was rapid, and primarily facilitated by hydrolysis to KAR5417. Formation of KAR5417 was attributed to de-esterification of RVT-1201.
KAR5417 is rapidly formed after oral administration of RVT-1201.
Data from two clinical studies were used to verify the PBPK model (Clinical Study KAR5585-101 and Clinical Study RVT-1201-1001). Clinical Study KAR5585-101 was a randomized, double blind, placebo-controlled, Phase 1, first-in-human study to characterize the pharmacokinetics of single and multiple ascending doses of RVT-1201 in healthy subjects. RVT-1201 and KAR5417 plasma concentration data on Day 1, 7 and 14 of 400 mg BID administration in fed subjects were used to support verification of the PBPK model. In addition, multiple dose RVT-1201 and KAR5417 plasma concentration data on Day 1, 7 and 14 of 400 mg or 800 mg BID administration in fed subjects in Clinical Study RVT-1201-1001 were also used to support model verification.

Sequence of CYP2D6 (P10635 whole entry): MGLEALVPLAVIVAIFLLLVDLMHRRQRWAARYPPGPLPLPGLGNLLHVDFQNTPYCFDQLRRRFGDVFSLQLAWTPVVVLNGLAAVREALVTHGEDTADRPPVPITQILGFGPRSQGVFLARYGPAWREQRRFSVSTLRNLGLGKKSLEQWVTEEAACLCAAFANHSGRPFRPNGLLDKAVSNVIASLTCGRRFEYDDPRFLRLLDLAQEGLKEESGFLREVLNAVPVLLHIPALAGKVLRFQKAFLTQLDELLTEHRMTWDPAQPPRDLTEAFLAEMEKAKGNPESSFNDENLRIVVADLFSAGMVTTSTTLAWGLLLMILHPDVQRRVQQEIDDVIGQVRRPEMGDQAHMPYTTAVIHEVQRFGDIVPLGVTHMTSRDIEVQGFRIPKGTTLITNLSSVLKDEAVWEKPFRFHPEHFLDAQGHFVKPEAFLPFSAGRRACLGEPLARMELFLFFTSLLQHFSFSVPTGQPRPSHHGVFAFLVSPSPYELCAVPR
Sequence of CYP2C9 (P11712 whole entry): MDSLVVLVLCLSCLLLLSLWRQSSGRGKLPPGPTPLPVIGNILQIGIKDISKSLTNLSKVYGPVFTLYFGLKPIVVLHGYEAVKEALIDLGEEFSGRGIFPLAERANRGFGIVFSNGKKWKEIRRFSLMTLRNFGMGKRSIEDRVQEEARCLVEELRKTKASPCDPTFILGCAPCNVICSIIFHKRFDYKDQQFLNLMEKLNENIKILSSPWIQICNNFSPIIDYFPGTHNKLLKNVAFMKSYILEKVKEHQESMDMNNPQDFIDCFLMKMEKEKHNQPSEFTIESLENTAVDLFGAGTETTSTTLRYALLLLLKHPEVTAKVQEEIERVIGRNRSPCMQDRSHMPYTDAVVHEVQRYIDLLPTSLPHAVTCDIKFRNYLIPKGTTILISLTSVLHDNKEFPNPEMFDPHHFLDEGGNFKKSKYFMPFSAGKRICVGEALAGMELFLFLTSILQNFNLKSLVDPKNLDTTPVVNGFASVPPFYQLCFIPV

In vitro substrate? CYP2D6 (CYP2D6) | In vitro substrate? CYP2C9 (CYP2C9) | Highest induction of CYP2B6 by an individual donor (CYP2B6) | Induction of CYP2B6 mRNA, mean±SD relative to control (CYP2B6) | Inducer classification, CYP2B6 (CYP2B6) | In vitro induction parameter Emax, CYP2B6 (CYP2B6) | EC50 (CYP2B6) | Calculated R3 Value, CYP2B6 (CYP2B6) | Highest induction of CYP3A4 by an individual donor (CYP3A4 [1]) | Induction of CYP3A4 mRNA, mean±SD relative to control (CYP3A4 [1]) | Inducer classification, CYP3A4 (CYP3A4 [1]) | In vitro induction parameter Emax, CYP3A4 (CYP3A4 [1]) | EC50 (CYP3A4 [1]) | Calculated R3 Value, CYP3A4 (CYP3A4 [1]) | Inducer classification, CYP1A2 (CYP1A2) | Potential for interaction? (transporter inhibitor), P-gp (P-gp) | In vitro substrate? CYP3A4 (CYP3A4 [2]) | also measured | SMILES
No | No | 60.1% | 16.2±20.0% | potentially weak to moderate inducers | 3.1 | 6.16 µM | 0.960 | 13.3% | 7.1±6.41% | potential weak inducers | 4.53 | 15.6 µM | 0.925 | not considered inducers | Yes | No | Calculated R3 Value, CYP3A4 (CYP3A4 [1]; listed as rodatristat ethyl): 0.478; IC50 (P-gp; Caco 2 cells, read-out: In vitro IC50, P-gp): 3.32 µM; half-life ([3]; human, plasma, oral, 400 mg BID dosing, read-out: Average geometric mean plasma terminal t1/2 (converted)): 5.2 h; Geometric mean apparent clearance ([3]; oral, Regimen C (400 mg single dose, fed)): 900 L/h; Median time to peak plasma levels ([3]; oral, fed state, healthy subjects): 2.5 h; Accumulation after multiple dosing ([3]; twice daily schedule, up to 600 mg BID, expected): < 1.5 fold | CCOC(=O)[C@@H]1CC2(CCN(c3cc(O[C@H](c4ccc(Cl)cc4-c4ccccc4)C(F)(F)F)nc(N)n3)CC2)CN1 [Rodatristat ethyl, (S)-ethyl 8-(2-amino-6-((R)-1-(5-chloro-[1,1′-biphenyl]-2-yl)-2,2,2-trifluoroethoxy)pyrimidin-4-yl)-2,8-diazaspiro[4.5]decane-3-carboxylate]
No | No | 57.4% | 15.0±17.9% | potentially weak to moderate inducers | 2.95 | 5.6 µM | 0.766 | 23.0% | 10.3±11.9% | potential weak inducers | 4.5 | 26.7 µM | 0.476 | not considered inducers | No | No | Inhibition of P-gp (in words) (P-gp): not an inhibitor; Cmax greater than the Cmax of RVT-1201 ([3]; Regimen C, 400 mg single dose of RVT-1201): approximately 5 fold; half-life ([3]; male, human, plasma, 400 mg, after oral RVT-1201, Regimen C, read-out: Geometric mean plasma terminal t1/2 (converted)): 12.3 h; Cmax ([3]; male, human, plasma, oral, Regimen C, 400 mg single dose of RVT-1201, read-out: Geometric mean Cmax): 517 ng/mL; Tmax ([3]; male, human, plasma, oral, Regimen C, 400 mg single dose of RVT-1201, read-out: Median Tmax): 3.5 h | Nc1nc(O[C@H](c2ccc(Cl)cc2-c2ccccc2)C(F)(F)F)cc(N2CCC3(CC2)CN[C@H](C(=O)O)C3)n1 [Rodatristat, (S)-8-(2-amino-6-((R)-1-(5-chloro-[1,1′-biphenyl]-2-yl)-2,2,2-trifluoroeth-oxy)pyrimidin-4-yl)-2,8-diazaspiro[4.5]decane-3-carboxylic acid]
